The text below walks through data of patent US8461125B2, “Compositions and methods to treat asthma” (The Children's Hospital of Philadelphia, priority 2008, dated 2013).

For series [1], the system named is CD23a mRNA. Kind of series: siRNA-mediated knockdown of CD23a mRNA expression in cultured human ASM cells (RT-PCR). Conditions: 100 nM each siRNA duplex; for CD23a mRNA expression (constitutive): FIG. 2, human ASM cells, control conditions, Oligofectamine-mediated transfection; for CD23a mRNA expression in IL-13-treated ASM cells / CD23a mRNA expression in vehicle-exposed ASM cells: FIG. 3, Oligofectamine transfection; for CD23a mRNA expression in IL-13-treated ASM cells: human ASM cells exposed 12 hr to IL-13 (50 ng/ml); for CD23a mRNA expression in vehicle-exposed ASM cells: human ASM cells exposed 12 hr to vehicle. It is filed as cell-based. The source says: The following materials and methods are provided to facilitate practice of the present invention: • Materials: All chemicals were purchased from Sigma-Aldrich unless otherwise indicated. The human ASM cells were obtained from BioWhittaker, Inc. • Animals: Adult New Zealand White rabbits were used in this study, which was approved by the Biosafety and Animal Research Committee of the Joseph Stokes Research Institute at Children's Hospital of Philadelphia. The animals had no signs of respiratory disease for several weeks before the study, and their care and use were in accordance with the “Guide for the Care and Use of Laboratory Animals” prepared by the Institute of Laboratory Animal Resources, National Research Council. • Immunization protocol: Rabbits were actively immunized by an intra-peritoneal injection of 1 ml of an emulsion containing ovalbumin (OVA; 2.5 mg in PBS) mixed in equal part with adjuvant, administered each week for 3 weeks and, thereafter, every alternate week for a one month period. Non-immunized rabbits receiving injections with PBS alone served as controls. Thereafter, the rabbits were challenged by airway administration of a 3% solution of OVA. […] Approximately 40 ml of blood was then drawn via an ear vein from each of the immunized and control rabbits for preparation of asthmatic and non-asthmatic serum samples to be used for subsequent passive sensitization of ASM tissue segments isolated from naïve rabbits, as described below. • siRNA-mediated knockdown of CD23 in cultured ASM cells: Human ASM cells were grown in SmBm media supplemented with 10% FBS (BioWhittaker) and maintained throughout in a humidified incubator containing 5% CO2 in air at 37° C. The experimental protocols involved seeding the cells into 6-well plates and, at ˜40% confluency, the medium was replaced with the reduced serum-containing medium, Opti-MEM (Invitrogen). Separate preparations of cells were then transfected twice during a 24-hr interval with each of four different siRNA duplexes targeted against human CD23, using Oligofectamine (Invitrogen) as the transfection agent. The siRNA preparations were purchased from Applied Biosystems and comprised the following nucleotide sequences:
Additionally, cell preparations were also transfected with either a pool of these CD23-directed siRNA duplexes, a non-targeted negative control (scrambled) siRNA duplex, or a negative control duplex labeled with the […], Cy™3, to visualize siRNA transfection efficiency. The siRNAs were applied to each well at a final concentration of 100 nM for each siRNA duplex. After 3 days, the cells were exposed for 12 hr to either vehicle alone or the pro-asthmatic cytokine, IL-13 (50 ng/ml), which is known to upregulate CD23 expression in human monocytes. The cells were subsequently examined for induced changes in mRNA expression of CD23a. • Detection of CD23 mRNA transcripts: Total RNA was extracted from the cultured ASM cells using the TRIzol method (Invitrogen), and cDNAs were isolated by RT-PCR using the SuperScript First Strand Synthesis System kit from Invitrogen, with the following oligonucleotide primer sets (Integrated DNA Technologies): for CD23a, (SEQ ID NO: 11) 5′-[…]-3′ (forward) and (SEQ ID NO: 12) 5′-[…]-3′ (reverse); and for β-actin, (SEQ ID NO: 13) 5′-[…]-3′ (forward) and (SEQ ID NO: 14) 5′-[…]-3′ (reverse). The reaction volume was 20 μl and cycling conditions used were 35 cycles of 30 sec denaturation at 95° C., followed by 30 sec annealing at 60° C. and elongation at 72° C. for 30 sec. Ex-Tag (Takara Biotechnology) was used as DNA polymerase. • Pharmacodynamic studies of constrictor and relaxation responsiveness in rabbit ASM tissues: Following initial sedation and subsequent general anesthesia with intramuscular injections of xylazine (10 mg/kg) and ketamine (50 mg/kg), respectively, rabbits were sacrificed with an intravenously administered overdose of sodium pentobarbital (100 mg/kg). […]

Series [2] has as its system rabbit ASM tissues. Kind of series: Constrictor and relaxation responsiveness in isolated rabbit ASM tissues (organ bath, isometric tension). Conditions: rabbit ASM tissues exposed 24 hr to IgE immune complexes, pretreatment 10 μM. From the text:
The following materials and methods are provided to facilitate practice of the present invention: • Materials: All chemicals were purchased from Sigma-Aldrich unless otherwise indicated. The human ASM cells were obtained from BioWhittaker, Inc. • Animals: Adult New Zealand White rabbits were used in this study, which was approved by the Biosafety and Animal Research Committee of the Joseph Stokes Research Institute at Children's Hospital of Philadelphia. The animals had no signs of respiratory disease for several weeks before the study, and their care and use were in accordance with the “Guide for the Care and Use of Laboratory Animals” prepared by the Institute of Laboratory Animal Resources, National Research Council. • Immunization protocol: Rabbits were actively immunized by an intra-peritoneal injection of 1 ml of an emulsion containing ovalbumin (OVA; 2.5 mg in PBS) mixed in equal part with adjuvant, administered each week for 3 weeks and, thereafter, every alternate week for a one month period. Non-immunized rabbits receiving injections with PBS alone served as controls. Thereafter, the rabbits were challenged by airway administration of a 3% solution of OVA. […]

In series [3] the test system is cAMP PDE4 activity. Kind of series: cAMP PDE activity in isolated rabbit ASM tissues after pro-asthmatic sensitization. The note with it: FIG. 7B; rabbit ASM tissues sensitized 24 hr with IgE immune complexes.

In the case of “#106644: siRNA duplex against human CD23 (Applied Biosystems): sense 5′-GGAGGUGACAAAGCUAAGGtt-3′, antisense 5′-CCUUAGCUUUGUCACCUCCtc-3′ (sense GGAGGUGACAAAGCUAAGGTT; antisense CCUUAGCUUUGUCACCUCCTC; chemistry not given here)”, in series [1], the “CD23a mRNA expression (constitutive)” value is reported as “no effect”, the “CD23a mRNA expression in IL-13-treated ASM cells” value is “no effect” and the “CD23a mRNA expression in vehicle-exposed ASM cells” value is recorded as “no effect”.
For `COc1ccc(C2CNC(=O)C2)cc1OC1CCCC1` (centres unmarked) [rolipram], in series [2] (FIG. 5A), the “Induced pro-asthmatic change in constrictor responsiveness to ACh” value is “prevented”. Further, the “Induced pro-asthmatic change in relaxation responsiveness to isoproterenol” value in series [2] (FIG. 5B) was “prevented”. In series [3], the “Induced upregulation of cAMP PDE4 activity” value is given as “inhibitory effect”.
“#111062: siRNA duplex against human CD23 (Applied Biosystems): sense 5′-CGAAGCUUCAGAUUUGCUGtt-3′, antisense 5′-CAGCAAAUCUGAAGCUUCGtt-3′ (sense CGAAGCUUCAGAUUUGCUGTT; antisense CAGCAAAUCUGAAGCUUCGTT; chemistry not given here)”: in series [1], the “CD23a mRNA expression (constitutive)” value was “no effect”, the “CD23a mRNA expression in IL-13-treated ASM cells” value is recorded as “no effect” and the “CD23a mRNA expression in vehicle-exposed ASM cells” value was “no effect”.
For “#106645: siRNA duplex against human CD23 (Applied Biosystems): sense 5′-GGUGACAAAGCUAAGGAUGtt-3′, antisense 5′-CAUCCUUAGCUUUGUCACCtc-3′ (sense GGUGACAAAGCUAAGGAUGTT; antisense CAUCCUUAGCUUUGUCACCTC; chemistry not given here)”, in series [1], the “CD23a mRNA expression (constitutive)” value is given as “distinctly inhibited”, the “CD23a mRNA expression in IL-13-treated ASM cells” value is on record as “markedly inhibited” and the “CD23a mRNA expression in vehicle-exposed ASM cells” value is “markedly inhibited”. The “CD23a mRNA expression (constitutive)” value in series [1] (listed as 106645) is recorded as “marked inhibition”.
As to “#111060: siRNA duplex against human CD23 (Applied Biosystems): sense 5′-GGAAUUGAACGAGAGGAACtt-3′, antisense 5′-GUUCCUCUCGUUCAAUUCCtg-3′ (sense GGAAUUGAACGAGAGGAACTT; antisense GUUCCUCUCGUUCAAUUCCTG; chemistry not given here)”, in series [1], the “CD23a mRNA expression (constitutive)” value is listed as “distinctly inhibited”, the “CD23a mRNA expression in IL-13-treated ASM cells” value is “markedly inhibited” and the “CD23a mRNA expression in vehicle-exposed ASM cells” value is recorded as “markedly inhibited”. The “CD23a mRNA expression (constitutive)” value in series [1] (listed as 111060) is on record as “marked inhibition”.
